The target of data set [1] is T1, POP (Homo sapiens, UniProt P48147).
T1 construct: purchased BPS Bioscience Inc
T1 sequence (P48147 1-710): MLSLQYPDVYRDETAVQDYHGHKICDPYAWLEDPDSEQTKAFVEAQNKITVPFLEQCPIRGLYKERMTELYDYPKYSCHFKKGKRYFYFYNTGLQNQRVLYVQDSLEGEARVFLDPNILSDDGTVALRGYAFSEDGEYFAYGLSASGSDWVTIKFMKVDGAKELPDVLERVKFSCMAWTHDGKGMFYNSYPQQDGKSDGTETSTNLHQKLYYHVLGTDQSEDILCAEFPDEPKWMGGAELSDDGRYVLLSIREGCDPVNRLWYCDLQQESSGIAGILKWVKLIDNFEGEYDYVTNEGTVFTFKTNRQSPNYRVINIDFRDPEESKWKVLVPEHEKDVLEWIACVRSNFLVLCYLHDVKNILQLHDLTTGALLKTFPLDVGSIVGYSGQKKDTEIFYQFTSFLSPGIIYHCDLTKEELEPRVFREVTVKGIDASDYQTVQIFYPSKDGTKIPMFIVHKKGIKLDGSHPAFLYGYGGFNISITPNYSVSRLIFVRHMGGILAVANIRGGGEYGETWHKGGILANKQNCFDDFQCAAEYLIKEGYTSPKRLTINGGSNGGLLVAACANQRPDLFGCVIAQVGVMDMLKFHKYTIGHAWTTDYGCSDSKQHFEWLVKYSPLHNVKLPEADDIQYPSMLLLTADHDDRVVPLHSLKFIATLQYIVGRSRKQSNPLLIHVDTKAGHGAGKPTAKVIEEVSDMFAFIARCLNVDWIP
The experiment in a line: Prolyloligopeptidase (POP) inhibition assay, fluorogenic kit. The data set is classed as biochemical. Particulars: substrate DPP (Ala-Pro-AMC dipeptide); nid = no inhibition detected at 1 mM; read-out: IC50 POP. As for the experimental part:
POP enzyme activity was measured using the Fluorogenic POP Assay Kit (BPS Bioscience Inc., San Diego, CA, USA). The reaction was carried out in a final volume of 50 μL in a low-binding NUNC microtiter plate. All compounds were tested at a final concentration of 250 μM in duplicate. A DPP substrate was added to a final concentration of 2.5 μM and the POP enzyme solution was subsequently added to a final concentration of 1 ng/μL. Optical densities at 440 nm were recorded using a microplate reader (Synergy H1, Biotek, QC, Canada).

Data set [2] addresses T2, AChE (Electrophorus electricus, UniProt O42275).
T2 construct: purchased Abcam ab138871
The experiment in a line: biochemical. The conditions noted are these: substrate ATCh; nid = no inhibition detected at 1 mM. The data set is classed as biochemical, electric eel. As to the method:
(§1) Pharmacological properties specific to AD were tested first on AChEs (electric eel) according to the kit (ab138871, Abcam) that provides a colorimetric measure of enzyme activity and inhibition. Briefly, the reaction was performed in a final volume of 100 μL in 96-well microplates. […] For this, DMSO-dissolved test compounds were added to a final concentration of 1 mM (1% DMSO) in duplicates. Next, a 5 μL reaction mixture containing equal amounts of acetylthiocholine (20X) and DTNB (20X) was added to each well. Ultimately, the enzyme solution was added to a final concentration of 0.25 U/mL and the absorbance was measured at 412 nm in kinetic mode for 10 min using a microplate reader (Synergy H1, Biotek, Dorval, QC, Canada). The same procedure was utilized for the BuChE (equine, Sigma-Aldrich) activity test, except that the enzyme concentration was 2 U/mL per reaction. DTNB (Bis(3-carboxy-4-nitrophenyl) disulfide, Ellman’s Reagent), acetylthiocholine iodide, and butyrylthiocholine iodide were purchased from Sigma-Aldrich (Oakville, ON, Canada). […] Experiments were performed at least twice. Inhibition was calculated as follows:I = 100 × (1 − Δi/Δe) where Δi is the difference in the absorbance between two time points in the presence of the inhibitor, and Δe is the difference in the absorbance using two time points in presence of DMSO or an appropriate solvent.

Data set [3] has as its system DENVGFP. As to the kind of experiment: Antiviral assay, propagative DENVGFP vector in Huh7 cells, flow cytometry. The format is cell-based, dengue virus (serotype 2). Particulars: Dengue virus, Huh-7, 72 h, read-out: EC50 DENV. As for the experimental part:
(§2) The plasmid used to obtain the DENVGFP vector (pFK-DVs-G2A) was provided by Ralf Bartenschlager (Heidelberg University, Heidelberg, Germany) and Laurent Chatel-Chaix (Institut National de la Recherche Scientifique, Laval, QC, Canada). The 2 plasmids used to obtain the HIV-1GFP vector were PMD2.G and pNL4-3-GFPΔEnvΔNef. For DENVGFP, viral titer was measured using a plaque assay in Vero cells, as described in [53]. For HIV-1GFP, the viral titer was obtained by measuring the infectivity of serially diluted vectors in CRFK cells, as described in [54].
(§3) Briefly, 7.5 × 10^3 Huh7 cells/well or 2 × 10^4 THP-1 cells/well were plated in 96-well plates at 37 °C for 24 h. […] Each dilution was added to the cell plates to obtain final concentrations of 1.56 µM to 200 µM for alkaloids and matched concentrations of DMSO, and 0.05 µM to 6.4 µM for lycorine or 0.078 µM to 10 µM for raltegravir. Lycorine and raltegravir were used as DENV and HIV-1 inhibitor controls, respectively. DENVGFP and HIV-1GFP were then added at multiplicities of infection (MOIs) of 0.025 and 0.1, respectively. Plates were placed in an incubator at 37 °C and 5% CO2 for 72 h. Afterward, the cells were fixed in 3.7% formaldehyde and the percentage of infection was measured using flow cytometry with an FC500 MPL cytometer (Beckman Coulter, Inc., Brea, CA, USA). Data analysis was performed using Flowjo software (BD, FlowJo LLC, Ashland, OR, USA). All experiments were performed at least twice. EC50 values were calculated using QuestGraph IC50 calculator software (MLA Quest Graph™ IC50 Calculator. AAT Bioquest, Inc. https://www.aatbio.com/tools/ic50-calculator (accessed on 1 July 2022)).

The nature of data set [4]: Cytotoxicity assay (Cell-Titer GLO, cellular ATP levels) on THP-1 cells. The data set is classed as cell-based, human. The conditions noted are these: human; THP-1 cells, 72 h, ATP levels. As for the experimental part: (§4) Briefly, 7.5 × 10^3 Huh7 cells/well or 2 × 10^4 THP-1 cells/well were plated in black 96-well plates and incubated at 37 °C for 24 h. […] Each dilution was added to the cell plates to obtain final concentrations of 6.25 µM to 200 µM for alkaloids and DMSO, and 0.39 µM to 50 µM for lycorine. […] The plates were then incubated at 37 °C and 5% CO2 for 72 h. Cell-Titer GLO reagent was added to the plates previously equilibrated to room temperature. The plates were then mixed on an orbital shaker for 2 min and incubated for 10 min at room temperature. The luminescence signal was measured with a microplate spectrophotometer (Synergy H1, Biotek, Dorval, QC, Canada). Viability percentages were obtained by calculating the ratio of the signal corresponding to each alkaloid concentration to the signal of the equimolar DMSO control. All experiments were performed at least twice. Median cytotoxic concentrations (CC50) were calculated using QuestGraph IC50 calculator software (MLA Quest Graph™ IC50 Calculator, AAT Bioquest, Inc., Sunnyvale, CA, USA).

For data set [5], the system named is THP-1 cells. The data set is described as above. The format is cell-based, human. The conditions noted are these: 100 µM, killing a majority of the cells. As to the method: as §4
The nature of data set [6]: Cytotoxicity assay (Cell-Titer GLO, cellular ATP levels) on Huh7 cells. The format is cell-based, human. Particulars: human; Huh7 cells, 72 h, ATP levels. As to the method:
as §4

Data set [7] concerns Huh7 cells. The data set is described as above. The data set is classed as cell-based, human. The conditions noted are these: 200 µM. As to the method: as §4
Data set [8] relates to HIV-1GFP. The experiment in a line: microbe, parasite or virus in culture. The format is cell-based, human immunodeficiency virus (HIV)-1. As for the experimental part: as §2, §3
In data set [9] the target is T3, BuChE (Equus caballus, UniProt P81908).
T3 construct: purchased Sigma-Aldrich
T3 sequence (P81908 whole entry): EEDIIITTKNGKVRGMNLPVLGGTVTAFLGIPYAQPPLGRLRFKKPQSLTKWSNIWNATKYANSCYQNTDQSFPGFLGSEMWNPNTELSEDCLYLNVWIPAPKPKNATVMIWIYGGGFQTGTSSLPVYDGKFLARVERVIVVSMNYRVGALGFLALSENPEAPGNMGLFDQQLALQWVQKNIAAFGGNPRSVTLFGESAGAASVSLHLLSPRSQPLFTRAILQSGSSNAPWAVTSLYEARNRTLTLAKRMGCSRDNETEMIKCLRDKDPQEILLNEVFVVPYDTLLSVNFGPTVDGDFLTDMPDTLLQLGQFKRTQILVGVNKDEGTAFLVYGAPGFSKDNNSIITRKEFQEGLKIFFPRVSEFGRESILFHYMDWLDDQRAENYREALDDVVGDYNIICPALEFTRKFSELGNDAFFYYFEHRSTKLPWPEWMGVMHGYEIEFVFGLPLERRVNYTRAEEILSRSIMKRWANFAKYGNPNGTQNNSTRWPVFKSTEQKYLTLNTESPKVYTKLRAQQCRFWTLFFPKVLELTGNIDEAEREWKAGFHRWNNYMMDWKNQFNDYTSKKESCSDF
As to the kind of experiment: biochemical. On the set-up: species or system equine. Particulars: nid = no inhibition detected at 1 mM. As for the experimental part: as §1

SMILES strings stand for the structures.

T2 sequence (O42275 24-633): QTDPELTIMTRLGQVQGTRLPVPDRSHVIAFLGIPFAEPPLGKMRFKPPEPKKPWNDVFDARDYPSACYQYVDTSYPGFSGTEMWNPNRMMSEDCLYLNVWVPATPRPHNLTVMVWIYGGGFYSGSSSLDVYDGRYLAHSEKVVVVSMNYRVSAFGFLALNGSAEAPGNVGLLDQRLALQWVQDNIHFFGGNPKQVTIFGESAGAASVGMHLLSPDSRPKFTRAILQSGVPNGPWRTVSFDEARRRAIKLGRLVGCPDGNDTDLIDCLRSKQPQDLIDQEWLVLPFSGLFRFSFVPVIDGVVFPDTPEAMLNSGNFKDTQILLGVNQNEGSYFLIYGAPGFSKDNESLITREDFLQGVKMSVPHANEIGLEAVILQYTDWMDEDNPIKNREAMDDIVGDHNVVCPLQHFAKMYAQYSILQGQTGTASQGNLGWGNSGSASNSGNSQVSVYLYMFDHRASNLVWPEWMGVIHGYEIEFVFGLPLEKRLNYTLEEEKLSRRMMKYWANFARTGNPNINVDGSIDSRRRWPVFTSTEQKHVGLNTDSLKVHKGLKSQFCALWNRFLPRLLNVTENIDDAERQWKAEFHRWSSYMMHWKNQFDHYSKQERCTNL

For orientation: IC50 means the concentration that gives 50% inhibition. In general, EC50 refers to the concentration needed to bring the measured effect to its halfway point. Broadly, the CC50 is the concentration at which the toxic effect on the cells reaches its halfway point. What is called inhibition is the relative decrease from the control value, in per cent. For `Oc1ccc(CC/N=C/c2ccc(O)c(O)c2)cc1` [Norcraugsodine], the IC50 in [1] was 567 µM. Further, in [2], the “IC50 AChE” value is on record as “nid”. Further, the EC50 in [3] came out at 37.7 µM; in data set [8] (Human immunodeficiency virus 1, THP-1, 72 h, read-out: EC50 HIV-1) it was 55.5 µM. In addition, the CC50 at 72 h is 27 µM in data set [4] and 122 µM in data set [6]. In data set [5], the “cytotoxicity to THP-1 cells” value is “highly cytotoxic”. Further, in [7], the “cell death, Huh7 cells” value was determined as 50%. Besides, in data set [8] (Human immunodeficiency virus 1, THP-1, read-out: inhibition of HIV-1 infection), the inhibition at 200 µM lay in the range of 94 to 99%. Besides, the “IC50 BuChE” value in [9] (substrate ATCh) and in [9] (substrate BuTCh) was “nid” each time.

The values are drawn from publication PMC9457815 (Molecules, 2022).
